# Test results published in article PMC3929664, “A Panel of Diverse Assays to Interrogate the Interaction between Glucokinase and Glucokinase Regulatory Protein, Two Vital Proteins in Human Disease” (PLoS ONE, 2014).
# Where a name gives a salt, the structure may show the parent alone.
# Molecular target: T1, GCK enzymatic reaction inhibited by GKRP (recombinant human GCK and GKRP) (Homo sapiens, UniProt P35557+Q14397)
# T1 construct: made in house
# T1 sequence (P35557 1-465): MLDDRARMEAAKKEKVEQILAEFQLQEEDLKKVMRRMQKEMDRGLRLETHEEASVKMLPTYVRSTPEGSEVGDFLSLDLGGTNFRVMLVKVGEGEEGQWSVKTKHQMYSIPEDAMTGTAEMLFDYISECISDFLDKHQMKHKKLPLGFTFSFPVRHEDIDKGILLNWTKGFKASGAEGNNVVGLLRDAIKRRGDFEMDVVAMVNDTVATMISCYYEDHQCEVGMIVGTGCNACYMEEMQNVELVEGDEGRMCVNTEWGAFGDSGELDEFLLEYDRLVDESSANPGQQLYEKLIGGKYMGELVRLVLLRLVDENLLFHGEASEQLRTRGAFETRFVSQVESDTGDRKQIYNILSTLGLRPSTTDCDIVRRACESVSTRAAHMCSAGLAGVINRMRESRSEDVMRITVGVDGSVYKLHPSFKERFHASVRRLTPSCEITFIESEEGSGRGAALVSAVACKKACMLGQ
# T1 sequence (Q14397 1-625): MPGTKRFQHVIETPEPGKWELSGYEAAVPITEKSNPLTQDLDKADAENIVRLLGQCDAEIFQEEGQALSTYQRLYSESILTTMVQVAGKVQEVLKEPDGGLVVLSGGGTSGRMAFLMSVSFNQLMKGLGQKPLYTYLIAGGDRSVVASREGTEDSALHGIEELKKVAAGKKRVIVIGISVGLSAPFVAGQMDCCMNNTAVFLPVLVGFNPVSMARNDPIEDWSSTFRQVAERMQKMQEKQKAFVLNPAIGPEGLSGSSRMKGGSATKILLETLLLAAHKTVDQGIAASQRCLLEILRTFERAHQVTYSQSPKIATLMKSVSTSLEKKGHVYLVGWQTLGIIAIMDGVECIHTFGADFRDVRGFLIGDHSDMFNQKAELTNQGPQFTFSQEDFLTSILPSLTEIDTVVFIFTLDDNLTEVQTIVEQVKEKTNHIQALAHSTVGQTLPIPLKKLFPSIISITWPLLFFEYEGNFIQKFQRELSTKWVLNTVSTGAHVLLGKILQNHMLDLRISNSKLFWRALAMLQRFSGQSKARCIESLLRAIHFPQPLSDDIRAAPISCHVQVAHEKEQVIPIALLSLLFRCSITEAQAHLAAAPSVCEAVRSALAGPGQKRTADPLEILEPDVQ
# Test: Diaphorase-coupled kinetic assay (G6PDH/diaphorase dual-coupled)
# Type: biochemical
# Details: 10 nM GCK, 10 nM GKRP; for LOPAC1280 screen outcome: 1.5 µM S6P
# Procedure: The glucose 6-phosphate dehydrogenase (G6PDH)-coupled kinetic assay described previously was adapted for high-throughput screening by dispensing 2 µl diaphorase-coupled substrate assay buffer (pH 7.1) to give final reaction conditions of 25 mM HEPES, 25 mM KCl, 2 mM MgCl2, 1.4 mM 2-mercaptoethanol, 0.025% BSA, 0.01% Tween-20, 0.15 mM NADP^+, 5 mM glucose, 0.4 mM ATP, 4 U/ml G6PDH, and 0.1 mM resazurin (all Sigma-Aldrich, except ATP which was from Promega) into black 1536-well medium binding plates (Greiner Bio-One) using a BioRAPTR. The reaction was then initiated by addition of 2 µl of diaphorase-coupled enzyme assay buffer containing indicated concentrations of GST-GCK, FLAG-GKRP, and diaphorase (Sigma-Aldrich; final concentration 0.1 mg/ml). Reaction progress was followed by quantitation of the fluorescent product resorufin generated from resazurin with excitation at 525 nm and emission at 590 nm using a ViewLux Microplate Imager. Plates were read every minute for 30 minutes. […] For the LOPAC^1280 library screen, column 1 was all components with DMSO (maximum signal) and column 3 was no GCK with DMSO (minimum signal). These two control columns were used for data normalization. The final HTS protocol is in Table S2, and the data have been deposited in PubChem (AID 743205).
# S6P, F1P, and glucose were dissolved in water; GKAs were dissolved in DMSO.
# The G6PDH-coupled kinetic assay system described in [24] was utilized as a basis for developing a high-throughput screening assay to detect G6P generation. Because NADPH (excitation 340 nm, emission 450 nm) has spectral overlap with many fluorescent small molecule compounds, NADPH generation by G6PDH was coupled to NADPH-dependent reduction of resazurin to the fluorescent resorufin (excitation 525 nm, emission 590 nm) catalyzed by diaphorase ( Figure 1B ). Initial assay validation was carried out over a range (0–20 nM) of GCK and GKRP concentrations ( Figure 4A ). Additionally, seven different control mixes of NADP^+ and NADPH were tested in duplicate to generate a standard curve. The total NADP^+/NADPH concentration was 0.15 mM for all controls, with 0, 5, 10, 30, 50, 70, or 100% NADPH. This allowed estimation of the amount of NADP^+ that had been converted by the GCK reaction throughout the time-course ( Figure 4A , dashed lines). The assay is sensitive to very low levels of conversion.
# The reaction rate for both 10 nM GCK alone and for 10 nM GCK with 10 nM GKRP was linear for the entire 30-minute time-course. The combination of linearity and the relatively low percent conversion of NADP^+ led us to select t = 10 minutes as providing an appropriate signal window for all future analyses. […] The IC80 value for S6P was calculated as 1.5 µM. Accordingly, this S6P concentration was utilized for all remaining diaphorase-coupled experiments.
smiles,measurement,setting,value
Cc1ccc(C(=O)Nc2ccc(S(=O)(=O)O)c3cc(S(=O)(=O)O)cc(S(=O)(=O)O)c23)cc1NC(=O)c1cccc(NC(=O)Nc2cccc(C(=O)Nc3cc(C(=O)Nc4ccc(S(=O)(=O)O)c5cc(S(=O)(=O)O)cc(S(=O)(=O)O)c45)ccc3C)c2)c1 [suramin sodium salt],LOPAC1280 screen outcome,,inhibitors of the GCK-GKRP interaction
"O=P(O)(O)OC[C@@H](O)[C@@H](O)[C@H](O)[C@@H](O)CO [S6P, sorbitol 6-phosphate]",IC80,,1500 nM
same,IC50,"t = 10 minutes, mean ± SD",400 ± 40 nM
"O=C(O)C1=CC(=C(c2ccc(O)c(C(=O)O)c2)c2ccc(O)c(C(=O)O)c2)C=CC1=O [ATA, aurintricarboxylic acid]",LOPAC1280 screen outcome,,inhibitors of the GCK-GKRP interaction
"O=C(COP(=O)(O)O)[C@@H](O)[C@H](O)[C@H](O)CO [F1P, fructose 1-phosphate]",EC50,"t = 10 minutes, mean ± SD",4000 ± 500 nM
